According to patent publication US11517019B2, “Microbicidal system” (priority 2020, dated 2022):
“Also recorded” adds a separate entry of the source. Read-outs that look alike come from different tables or passages of the source.

Key:
Lp1 = format: cell-based, Legionella pneumophila; settings: ~9×10^6 CFU/mL
[1] = system: gram-positive and gram-negative bacteria; settings: cited from earlier work
[2] = ambient temperature; third-party reports; cited from earlier work
[3] = Dissolution of CX powder in 140° F. municipal water
[4] = 50 mg CX powder in 1 liter 140° F. (60° C.) municipal water

For `[H]/N=C(\N/C(=N/[H])NCCCCCCNC(=N)NC(=N)Nc1ccc(Cl)cc1)Nc1ccc(Cl)cc1` [CX, N,N″″1,6-Hexanediylbis[N-(4-chlorophenyl) (imidodicarbonimidic diamide)]], the cell count reduction (Lp1; 4.5 g solid CX in 800 mL, first 30 seconds) is listed as about 0.3 log, the cell count reduction (Lp1; 12 g solid CX in 800 mL, 2-minute reaction period) is listed as about 4.8 log and the “time of uptake into bacterial cells” value ([1]; aqueously dissolved form) is listed as at most 20 s. For the same compound, the persistence of activity ([1]; bound to proteins on skin, mucosa, mouth tissue and teeth) was at least 48 h, the “time to kill virtually all gram-positive and gram-negative bacteria” value ([1]; in vitro) was at most 30 s and the solubility in water [2] was “ca. 80 mg/100 mL”. For the same compound, the “saturation level of CX approached” value [3, 4] was about 1 mg/L, the “time to approach saturation level” value [3, 4] was at most 10 s and the “portion of the powder dissolved” value ([3]; 50 mg in 1 liter 140° F. water, up to 20 minutes of exposure) was “under 2 weight percent”. For the same compound, the “chloroaniline (CA) isomers detectable in the water” value ([3]; CX in 140° F. water) was “no isomer of CA was detectable; also recorded: No chloroani line impurities were detectable”.
